# US12642794B2, “Dose regimens for use of LY3154207 in the treatment of dopaminergic CNS disorders” (Eli Lilly and Company, priority 2018, dated 2026)
# Test system: healthy subjects
# Assay: HBEA Part A single ascending dose study: adverse events, safety, tolerability
# Type: in vivo, human
# Description: FIG. 1: Design of the study HBEA, a single ascending dose study of a D1 receptor positive allosteric modulator LY3154207 in healthy volunteers. aSafety review completed after each dose level prior to escalation. bDose escalation was terminated at 200 mg owing to cardiovascular effects. CSF=cerebrospinal fluid: LY=LY3154207: PBO=placebo: PK-pharmacokinetic.
# HBEA is a single ascending dose study of a D1 receptor positive allosteric modulator LY3154207 in healthy volunteers. Study HBEA aims to determine the safety, tolerability, and peripheral and central pharmacokinetics (PK) of single ascending doses of LY3154207 in healthy subjects. Study HBEB aims to evaluate the effect of single-dose LY3154207 on sleep latency in sleep-deprived healthy male subjects as measured by a multiple sleep latency test (MSLT). HBEA was a Phase 1, 2-part, randomized, double-blind, placebo-controlled study in healthy males or females. Part A has a 3-period crossover design with 2 alternating, single-dose escalating cohorts, and subjects were randomized to LY3154207 (n=6) or placebo (n=3) in each cohort in each dosing period. Part B has a single-period, single-dose, 2-cohort design with cerebrospinal fluid (CSF) sampling, and subjects were randomized to LY3154207 (n=8) or placebo (n=4) in each cohort.
# This is a phase 1, SAD, crossover design of LY3154207 in healthy subjects conducted in 2 alternating cohorts with dose escalation. Subjects are dosed at 25 mg, 75 mg, 100 mg, 150 mg and 200 mg or placebo. Safety parameters assessed include adverse events (AEs), safety laboratories, vital signs, ambulatory blood pressure monitoring (ABPM) and electrocardiogram (ECG). Subjects provide blood samples after dosing to measure plasma concentrations of LY3154207 for assessment of PK.
smiles,measurement,setting,value
C[C@H]1c2cccc(CCC(C)(C)O)c2C[C@H](CO)N1C(=O)Cc1c(Cl)cccc1Cl [LY3154207],"Nausea, treatment-related AE, n subjects",single dose 75 mg (N = 6),0 n
same,"Treatment-related AEs, (%)",single dose 75 mg (N = 6),66.7%
same,"Treatment-related AEs, [events]",single dose 75 mg (N = 6),[8] events
same,"Anxiety, treatment-related AE, [events]",single dose 100 mg (N = 8),2 [2] events
same,"Anxiety, treatment-related AE, n subjects",single dose 100 mg (N = 8),2 [2] n
same,"Decreased appetite, treatment-related AE, [events]",single dose 100 mg (N = 8),1 [1] events
same,"Decreased appetite, treatment-related AE, n subjects",single dose 100 mg (N = 8),1 [1] n
same,"Dizziness, treatment-related AE, [events]",single dose 100 mg (N = 8),1 [1] events
same,"Dizziness, treatment-related AE, n subjects",single dose 100 mg (N = 8),1 [1] n
same,"Dysgeusia, treatment-related AE, [events]",single dose 100 mg (N = 8),2 [2] events
same,"Dysgeusia, treatment-related AE, n subjects",single dose 100 mg (N = 8),2 [2] n
same,"Energy increased, treatment-related AE, [events]",single dose 100 mg (N = 8),1 [1] events
same,"Energy increased, treatment-related AE, n subjects",single dose 100 mg (N = 8),1 [1] n
same,"Feeling hot, treatment-related AE, [events]",single dose 100 mg (N = 8),1 [1] events
same,"Feeling hot, treatment-related AE, n subjects",single dose 100 mg (N = 8),1 [1] n
same,"Headache, treatment-related AE, n subjects",single dose 100 mg (N = 8),0 n
same,"Insomnia, treatment-related AE, [events]",single dose 100 mg (N = 8),4 [4] events
same,"Insomnia, treatment-related AE, n subjects",single dose 100 mg (N = 8),4 [4] n
same,"Nausea, treatment-related AE, n subjects",single dose 100 mg (N = 8),0 n
same,"Treatment-related AEs, (%)",single dose 100 mg (N = 8),75.0%
same,"Treatment-related AEs, [events]",single dose 100 mg (N = 8),[17] events
same,"Anxiety, treatment-related AE, [events]",single dose 150 mg (N = 9),4 events
same,"Anxiety, treatment-related AE, n subjects",single dose 150 mg (N = 9),3 n
same,"Decreased appetite, treatment-related AE, [events]",single dose 150 mg (N = 9),3 [3] events
same,"Decreased appetite, treatment-related AE, n subjects",single dose 150 mg (N = 9),3 [3] n
same,"Dizziness, treatment-related AE, [events]",single dose 150 mg (N = 9),2 [2] events
same,"Dizziness, treatment-related AE, n subjects",single dose 150 mg (N = 9),2 [2] n
same,"Dysgeusia, treatment-related AE, [events]",single dose 150 mg (N = 9),2 [2] events
same,"Dysgeusia, treatment-related AE, n subjects",single dose 150 mg (N = 9),2 [2] n
same,"Energy increased, treatment-related AE, [events]",single dose 150 mg (N = 9),1 [1] events
same,"Energy increased, treatment-related AE, n subjects",single dose 150 mg (N = 9),1 [1] n
same,"Feeling hot, treatment-related AE, [events]",single dose 150 mg (N = 9),1 [1] events
same,"Feeling hot, treatment-related AE, n subjects",single dose 150 mg (N = 9),1 [1] n
same,"Headache, treatment-related AE, [events]",single dose 150 mg (N = 9),2 [2] events
same,"Headache, treatment-related AE, n subjects",single dose 150 mg (N = 9),2 [2] n
same,"Insomnia, treatment-related AE, [events]",single dose 150 mg (N = 9),3 [3] events
same,"Insomnia, treatment-related AE, n subjects",single dose 150 mg (N = 9),3 [3] n
same,"Nausea, treatment-related AE, [events]",single dose 150 mg (N = 9),2 [2] events
same,"Nausea, treatment-related AE, n subjects",single dose 150 mg (N = 9),2 [2] n
same,"Treatment-related AEs, (%)",single dose 150 mg (N = 9),88.9%
same,"Treatment-related AEs, [events]",single dose 150 mg (N = 9),[34] events
same,"Anxiety, treatment-related AE, [events]",single dose 200 mg (N = 6),1 [1] events
same,"Anxiety, treatment-related AE, n subjects",single dose 200 mg (N = 6),1 [1] n
same,"Decreased appetite, treatment-related AE, [events]",single dose 200 mg (N = 6),2 [2] events
same,"Decreased appetite, treatment-related AE, n subjects",single dose 200 mg (N = 6),2 [2] n
same,"Dizziness, treatment-related AE, [events]",single dose 200 mg (N = 6),1 [1] events
same,"Dizziness, treatment-related AE, n subjects",single dose 200 mg (N = 6),1 [1] n
same,"Dysgeusia, treatment-related AE, n subjects",single dose 200 mg (N = 6),0 n
same,"Energy increased, treatment-related AE, [events]",single dose 200 mg (N = 6),1 [1] events
same,"Energy increased, treatment-related AE, n subjects",single dose 200 mg (N = 6),1 [1] n
same,"Feeling hot, treatment-related AE, [events]",single dose 200 mg (N = 6),1 [1] events
same,"Feeling hot, treatment-related AE, n subjects",single dose 200 mg (N = 6),1 [1] n
same,"Headache, treatment-related AE, n subjects",single dose 200 mg (N = 6),0 n
same,"Insomnia, treatment-related AE, [events]",single dose 200 mg (N = 6),3 [3] events
same,"Insomnia, treatment-related AE, n subjects",single dose 200 mg (N = 6),3 [3] n
same,"Nausea, treatment-related AE, [events]",single dose 200 mg (N = 6),2 [2] events
same,"Nausea, treatment-related AE, n subjects",single dose 200 mg (N = 6),2 [2] n
same,"Treatment-related AEs, (%)",single dose 200 mg (N = 6),83.3%
same,"Treatment-related AEs, [events]",single dose 200 mg (N = 6),[18] events
